Laboratory results from patent US11992506B2, “Stem cell derived pancreatic islet differentiation” (Vertex Pharmaceuticals Incorporated, priority 2021, dated 2024).
Several values for one entry are separate records, joined by “and”; a condition that tells them apart may be missing. Equal entries are not always repeated.

Columns and labels:
[1] = test system: PDX1-positive, NKX-negative cells; test: Effects of differentiation agents on pancreatic islet cell differentiation (ISL1/NKX6.1 flow cytometry); type: cell-based; settings: for % of beta cells in S5D6 cell population: agents added to the base protocol on S4D5, S5D1, S5D2, FOXOi 1 μM, XAV 2 μM (present S5D1-4), TPB or PDBU 0.5 μM, XXI 2 μM
Experimental: FoxO1 inhibitor (FoxOi), Wnt inhibitor (XAV), Notch inhibitor (XXI), and/or PKC activator (PDBU or TPB) were tested for their effects on pancreatic islet cell differentiation.
PDX1-positive, NKX-negative cells were administered KGF (50 ng/ml), Sant-1 (250 nM), thiazovivin (2.5 μM), activin A (5 ng/ml), and retinoic acid (100 nM) for a period of six days (S4D1-S4D6) in a media including polyvinyl alcohol-80 (PVA-80) to generate a second population of cells. On day S4D5, the cells may also have been administered an additional reagent or combination of reagents as outlined in Table 5. After the six days, the second population of cells was administered XXI (2 μM), Alk5i (10 μM), GC-1 (1 μM), LDN-193189 (100 nM), thiazovivin (2.5 μM), staurosporine (3 nM), DZNEP (100 nM), Sant-1 (250 nM), retinoic acid (50 nM), and betacellulin (20 ng/ml) for two days (S5D1-S5D2) in a media comprising PVA-89. On days S5D1 and S5D2, the cells may also have been administered an additional reagent or combination of reagents as outlined in Table 5. On days S5D3-S5D6, the cells were administered XXI (2 μM), Alk5i (10 μM), GC-1 (1 μM), LDN-193189 (100 nM), thiazovivin (2.5 μM), staurosporine (3 nM), and DZNEP (100 nM). Cells were collected for analysis on day […].

EZH2 = EZH2 (Homo sapiens, UniProt Q15910); settings: cited from earlier work
EZH2, sequence (Q15910 whole entry, species assumed): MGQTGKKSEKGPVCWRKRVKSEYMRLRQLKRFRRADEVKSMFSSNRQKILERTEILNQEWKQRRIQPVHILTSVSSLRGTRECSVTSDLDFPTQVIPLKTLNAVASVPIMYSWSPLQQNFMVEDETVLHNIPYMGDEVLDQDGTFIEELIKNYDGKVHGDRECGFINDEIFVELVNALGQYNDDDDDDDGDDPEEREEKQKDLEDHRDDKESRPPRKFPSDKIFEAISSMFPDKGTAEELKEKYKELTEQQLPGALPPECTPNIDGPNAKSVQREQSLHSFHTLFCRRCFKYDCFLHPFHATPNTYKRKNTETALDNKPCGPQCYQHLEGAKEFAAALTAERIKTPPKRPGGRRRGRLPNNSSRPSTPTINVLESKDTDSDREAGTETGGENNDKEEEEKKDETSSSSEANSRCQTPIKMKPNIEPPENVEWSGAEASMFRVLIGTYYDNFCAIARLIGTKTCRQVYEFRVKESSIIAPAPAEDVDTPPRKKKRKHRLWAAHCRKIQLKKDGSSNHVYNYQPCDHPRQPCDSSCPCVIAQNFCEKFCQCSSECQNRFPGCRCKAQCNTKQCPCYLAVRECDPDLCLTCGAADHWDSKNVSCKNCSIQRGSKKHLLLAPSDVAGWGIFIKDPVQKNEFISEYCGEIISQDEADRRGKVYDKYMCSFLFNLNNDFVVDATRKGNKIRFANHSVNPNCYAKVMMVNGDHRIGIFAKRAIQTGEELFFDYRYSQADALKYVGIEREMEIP
EZH2, sequence (O75530 whole entry partner, species assumed): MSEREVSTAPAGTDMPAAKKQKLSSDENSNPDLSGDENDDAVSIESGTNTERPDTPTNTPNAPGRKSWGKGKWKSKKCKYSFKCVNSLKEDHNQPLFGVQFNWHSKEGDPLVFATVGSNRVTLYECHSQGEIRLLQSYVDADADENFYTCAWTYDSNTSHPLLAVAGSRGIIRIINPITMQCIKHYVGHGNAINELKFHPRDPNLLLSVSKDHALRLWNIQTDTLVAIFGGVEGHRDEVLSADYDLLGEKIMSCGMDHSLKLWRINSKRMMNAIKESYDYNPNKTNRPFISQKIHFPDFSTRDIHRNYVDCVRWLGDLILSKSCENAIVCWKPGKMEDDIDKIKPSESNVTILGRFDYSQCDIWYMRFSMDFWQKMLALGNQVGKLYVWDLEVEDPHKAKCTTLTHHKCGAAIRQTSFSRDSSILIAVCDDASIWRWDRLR
EZH2, sequence (Q15022 whole entry partner, species assumed): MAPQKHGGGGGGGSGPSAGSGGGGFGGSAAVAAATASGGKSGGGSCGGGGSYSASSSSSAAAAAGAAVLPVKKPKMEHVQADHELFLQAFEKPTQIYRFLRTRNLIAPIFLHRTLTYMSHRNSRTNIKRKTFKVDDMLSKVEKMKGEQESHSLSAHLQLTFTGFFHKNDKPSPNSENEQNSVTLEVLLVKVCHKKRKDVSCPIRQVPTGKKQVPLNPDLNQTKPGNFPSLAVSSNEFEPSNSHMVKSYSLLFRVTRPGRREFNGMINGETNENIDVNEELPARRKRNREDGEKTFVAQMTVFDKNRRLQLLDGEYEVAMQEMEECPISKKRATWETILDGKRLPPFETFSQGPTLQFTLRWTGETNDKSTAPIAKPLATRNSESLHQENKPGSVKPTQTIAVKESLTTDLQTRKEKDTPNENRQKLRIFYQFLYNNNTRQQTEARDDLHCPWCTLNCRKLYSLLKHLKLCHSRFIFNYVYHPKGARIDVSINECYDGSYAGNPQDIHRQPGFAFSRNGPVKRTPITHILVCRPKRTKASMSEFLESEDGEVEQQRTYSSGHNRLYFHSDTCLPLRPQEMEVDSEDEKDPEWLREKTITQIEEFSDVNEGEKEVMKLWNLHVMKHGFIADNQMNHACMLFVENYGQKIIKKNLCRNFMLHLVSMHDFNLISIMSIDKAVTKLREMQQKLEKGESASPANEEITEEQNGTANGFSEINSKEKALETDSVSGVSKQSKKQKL

SC-islet cells = test: Effect of additional FGF2 in stage 6 of differentiation; type: cell-based, human; settings: FGF2 100 ng/ml added to stage 6 media (Media A) of Protocol 3
Experimental: SC-islet cells were differentiated using Protocol 1, Protocol 2, Protocol 3, or Protocol 3 with the addition of FGF2 (at 100 ng/ml) in stage 6 media (Media A shown in Table 6). Cells were collected on S6D3, S6D7, and […] for analysis. Cells were also tested for insulin content (FIG. 35A) and glucagon content (FIG. 35B).

In the case of `CCn1cc(C(=O)O)c(=O)c2c(N)c(F)c(NC3CCCCC3)cc21` [FOXOi], the “% of beta cells in S5D6 cell population” value [1] is reported as 19% and 13%.

In the case of `CC[C@H](C)n1cc(C)c2c(C(=O)NCc3c(C)cc(C)[nH]c3=O)cc(-c3ccc(N4CCNCC4)nc3)cc21` [GSK126], the “selectivity over EZH1” value (EZH2; SAM-competitive EZH2 inhibitor) is listed as 150 fold.

In the case of `CCCC(=O)O[C@@H]1[C@@H](C)[C@@]2(O)[C@@H](C=C(CO)C[C@]3(O)C(=O)C(C)=C[C@@H]23)[C@@H]2C(C)(C)[C@]12OC(=O)CCC` [PDBU, Phorbol 12,13-dibutyrate], the “% of beta cells in S5D6 cell population” value [1] is reported as 28%.

In the case of `CC(C)[C@H]1C(=O)N[C@H](CO)Cc2cc(NC(=O)/C=C/C=C/c3ccc(C(F)(F)F)cc3)ccc2N1C` [TPB, ((2S,5S)-(E,E)-8-(5-(4-(Trifluoromethyl)phenyl)-2,4-pentadienoylamino)benzolactam)], the “beta cell production (in words)” value ([1]; agents added on S4D5 and/or S5, FIGS. 9-15) is reported as “did not result in more beta cell production” and the “% of beta cells in S5D6 cell population” value [1] is reported as 17%.

For `CCCc1cc(C)[nH]c(=O)c1CNC(=O)c1cc(-c2ccc(N3CCN(C(C)C)CC3)nc2)cc2c1cnn2C(C)C` [UNC1999], the “selectivity compared with GSK126” value (EZH2; analogue of GSK126) is listed as “less selective”.

With `Oc1nc(-c2ccc(C(F)(F)F)cc2)nc2c1CSCC2` [XAV] the “% of beta cells in S5D6 cell population” value [1] was 5%.

In the case of “FGF2: growth factor from the FGF family, added at 100 ng/ml in stage 6 media”, the “glucagon-expressing cells (SC-alpha cells)” value (SC-islet cells) is reported as “increases”.
